# Results as given in article PMC12851022, “Targeting the Spliceosomal Protein USP39 Through Allosteric Ligands and PROTAC‐Induced Degradation” (Angewandte Chemie (International Ed. in English), 2025).
# Tests used:
# [1] = target: T1, USP39_T2 (Homo sapiens, UniProt Q53GS9); test: Competitive FP assay, tracer USP39_B1-FITC; assay type: binding; conditions: for Binding in competitive FP screening normalized to USP39_B1: 5 µM compound concentration; for IC50: tracer USP39_B1-FITC, protein USP39_T2
# T1 construct: USP39_T2 (ZNF domain only); made in house
# T1 sequence (Q53GS9 103-200 limits assumed): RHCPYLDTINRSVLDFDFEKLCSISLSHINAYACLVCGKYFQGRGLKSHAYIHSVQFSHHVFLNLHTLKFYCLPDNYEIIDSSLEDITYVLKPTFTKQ
# Excerpt: The compound label is taken from plot legend entries such as 'WT_USP39_B1'. / Panel e: the picture prints no compound label. WT, M1 and M2 are protein variants (targets), not substances.
# To systematically investigate structure–activity relationships, we synthesized a series of derivatives by modifying the phenyl ring, either by substituting the chlorine atom with other halogens or varying the substitution pattern (Figure SI2B).
# Figure 3 Design and in vitro characterization of USP39‐targeting PROTACs. a) Synthetic strategy for PROTAC synthesis. […] USP39_B1‐FITC served as the tracer, while USP39_T2 acted as the protein. The results were obtained from two independent experiments, each performed in triplicates and are presented as mean ± SD. e) Predicted results from AI‐Based DMPK analysis. MW: Molecular weight; HBA: H‐Bond acceptors; HBD: H‐Bond donors; Con_LogP: Consensus LogP; RotB: Rotatable Bonds; TPSA: Topological polar surface area; ESOL_LogS: predicted aqueous solubility (Log10 mol L^−1); GI: Gastrointestinal absorption; BBB: Blood–brain barrier. A comprehensive overview of all PROTACs and related data is available in Table SI5 of the Supporting Information.
# [2] = target: T1, USP39_T2; test: Isothermal titration calorimetry (ITC); assay type: binding
# [3] = target: His-tagged USP39 and GST-tagged VHL (Homo sapiens, UniProt P40337+Q53GS9); test: Alpha assay of ternary complex formation; assay type: binding
# Sequence of His-tagged USP39 and GST-tagged VHL (Q53GS9 whole entry): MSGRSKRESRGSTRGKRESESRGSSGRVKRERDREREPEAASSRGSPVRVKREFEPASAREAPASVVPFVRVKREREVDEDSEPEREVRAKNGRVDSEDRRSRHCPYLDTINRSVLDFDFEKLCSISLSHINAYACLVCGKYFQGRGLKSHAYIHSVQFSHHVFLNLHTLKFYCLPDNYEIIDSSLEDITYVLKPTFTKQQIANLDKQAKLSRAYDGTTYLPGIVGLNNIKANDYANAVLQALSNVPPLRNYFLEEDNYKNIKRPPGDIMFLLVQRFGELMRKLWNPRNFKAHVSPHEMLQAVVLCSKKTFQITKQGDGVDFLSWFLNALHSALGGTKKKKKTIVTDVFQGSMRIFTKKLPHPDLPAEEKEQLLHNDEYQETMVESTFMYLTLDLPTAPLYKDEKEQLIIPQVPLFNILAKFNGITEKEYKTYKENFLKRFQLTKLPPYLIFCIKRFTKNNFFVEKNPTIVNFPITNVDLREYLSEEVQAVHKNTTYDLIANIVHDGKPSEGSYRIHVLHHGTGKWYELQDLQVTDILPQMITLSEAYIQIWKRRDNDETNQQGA
# Sequence of His-tagged USP39 and GST-tagged VHL (P40337 whole entry): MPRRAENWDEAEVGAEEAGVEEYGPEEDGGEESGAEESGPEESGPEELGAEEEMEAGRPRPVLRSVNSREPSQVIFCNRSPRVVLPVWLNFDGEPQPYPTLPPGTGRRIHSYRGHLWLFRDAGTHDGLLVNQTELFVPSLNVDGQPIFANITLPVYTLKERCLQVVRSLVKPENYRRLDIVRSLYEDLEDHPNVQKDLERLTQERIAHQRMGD
# [4] = target: T2, FKBP12^F36V-USP39 (Homo sapiens, UniProt P62942+Q96SW2, F37V); test: dTAG system degradation of FKBP12^F36V-USP39; assay type: cell-based
# T2 construct: expressed in transfected cells
# T2 sequence (P62942 whole entry F37V): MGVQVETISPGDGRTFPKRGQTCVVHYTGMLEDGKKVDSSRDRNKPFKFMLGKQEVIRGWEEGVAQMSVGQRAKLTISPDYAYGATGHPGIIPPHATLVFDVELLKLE
# T2 sequence (Q96SW2 whole entry): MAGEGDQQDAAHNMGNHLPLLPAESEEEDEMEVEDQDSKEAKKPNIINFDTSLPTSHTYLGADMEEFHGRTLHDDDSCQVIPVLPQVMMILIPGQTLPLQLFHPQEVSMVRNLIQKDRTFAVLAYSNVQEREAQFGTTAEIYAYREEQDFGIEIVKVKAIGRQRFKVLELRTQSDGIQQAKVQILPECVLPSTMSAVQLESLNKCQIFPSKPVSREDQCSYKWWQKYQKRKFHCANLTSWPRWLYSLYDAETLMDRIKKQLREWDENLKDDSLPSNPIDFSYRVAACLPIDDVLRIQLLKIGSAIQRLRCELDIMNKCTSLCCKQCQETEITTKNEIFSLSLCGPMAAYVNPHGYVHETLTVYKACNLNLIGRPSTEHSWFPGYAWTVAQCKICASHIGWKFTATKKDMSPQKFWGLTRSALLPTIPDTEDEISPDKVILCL
# Excerpt: (§1) To investigate whether USP39 can be degraded through the ubiquitin‐proteasome system, we utilized the dTAG system by fusing FKBP12^F36V to the N‐terminus of USP39 (Figure SI1A).^[ [22] ^]
# [5] = target: T3, FKBP12^F36V-USP39 (Homo sapiens, UniProt, F37V); test: dTAG system degradation of FKBP12^F36V-USP39; assay type: cell-based
# T3 construct: expressed in transfected cells
# T3 sequence (P62942 whole entry F37V): as the sequence (P62942 whole entry F37V) above
# T3 sequence (Q96SW2 whole entry, further chain): as the sequence (Q96SW2 whole entry) above
# Excerpt: as §1
structure (smiles),measurement,setting,value
CCOC(=O)c1csc(Nc2ccccc2Cl)n1 [C4],Binding in competitive FP screening normalized to USP39_B1,[1],failed to show measurable binding
CCOC(=O)c1csc(Nc2ccc(Cl)cc2)n1 [USP39_B1],Kd by ITC,[2],did not yield a clear binding isotherm
same,Inhibitory effect in competitive FP assay,"[1]; at 50 µM, USP39_T2, tracer USP39_B1-FITC",weak inhibitory effect
same,IC50,[1],> 50000 nM
same,Kd of ternary complex formation (Alpha assay),[3],no clear interaction was observed
CCOC(=O)c1csc(Nc2cccc(F)c2)n1 [USP39_B3],Binding in competitive FP screening normalized to USP39_B1,[1],significantly improved binding affinity
same,IC50,[1],1180 nM
CC[C@H](C(=O)N1CCCC[C@H]1C(=O)O[C@H](CCc1ccc(OC)c(OC)c1)c1ccccc1OCC(=O)NCCCCCCOc1cccc2c1C(=O)N(C1CCC(=O)NC1=O)C2=O)c1cc(OC)c(OC)c(OC)c1 (stereo partly drawn) [dTAG13],Time to degradation of FKBP12^F36V-USP39,[4],≤ 24 h
same,Effect on endogenous USP39 levels,[5],without affecting
